Test results published in patent EP1772146A1, “Polyunsaturated fatty acids as bace inhibitors” (Neuropharma, S.A., priority 2005, dated 2007).
Like-named read-outs stand apart in the source and are kept apart here.

Molecular target: T1, rhBACE-1 β-Secretase recombinant human (Homo sapiens, UniProt P56817)
T1 construct: purchased R&D Systems 931-AS
Experiment: BACE assay (FRET, fluorogenic peptide substrate cleavage)
Type: biochemical
Conditions: for activity at 10 µM: read-out: % BACE Activity (10^-5 M)
Text: The aim of this assay is to determine if a compound, either synthetic or of marine origin, is a BACE-1 inhibitor, to avoid the formation of Aβ. This assay is based on FRET technology (Fluorescence Resonance Energy Transfer). FRET is used to measure cleavage of a peptide substrate, among other uses. […] When a substrate peptide cleavage occurs, the energy balance is broken and all the donor fluorescence can be observed. The increase in fluorescence is linearly related to the rate of proteolysis (Gordon, GW et al., 1998). In this assay the reaction occurs between an enzyme, purified BACE-1, and a fluorogenic peptidic substrate who present the "Swedish mutation". The peptide cleavage by BACE-1 produces fluorescence energy and enzymatic activity can be quantified. The reagents which are used in this assay are the following: • rhBACE-1 β-Secretase recombinant human (R&D Systems. Ref. 931-AS). • Fluorogenic Peptide Substrate IV (R&D Systems. Ref. ES004). • B-SECRETASE INHIBITOR H-4848. (BACHEM. Ref. H-4848.0001). • FLUOSTAR OPTIMA plate reader with 320 nm excitation filter and 405 nm emission filter (Biogen cientifica). • Black microwell plate, 96 wells (Nunc. Ref. 00006877). Supplier: Dismadel. • Sodium acetate.
The assay is carried out in a 96 wells microplate. The final concentration of substrate is 3,5 µM per well, and the enzyme concentration is 0,5 µg/ml. The final volume of the assay is 100 µl per well and all reagents are diluted in Reaction Buffer. The compounds are tested at a concentration of 10^-5. The control in the assay is the commercial inhibitor β-Secretase inhibitor H-4848, which is tested at 300 nM. All the samples and controls are studied by duplicate.
The plate is mixed gently and changes in the fluorescence are measured using the plate reader, with "BACE" protocol. The temperature should be preferably maintained between 25 and 30 °C. Measurements are carried out every ten minutes during an hour. The first measure is subtracted from the last to calculate the fluorescence increase, evaluating the enzymatic activity. The 100% activity is calculated as the mean of the results of wells without sample or inhibitor.
Further information regarding this assay may be found in the following references, which are incorporated by reference into the present application: • Andrau, D et al; "BACE1- and BACE2-expressing human cells: characterization of beta-Amyloid precursor protein-derived catabolites, design of a novel fluorimetric assay, and identification of new in vitro inhibitors". J Biol Chem. 2003 Jul 11;278(28):25859-66. Gordon, GW et al; "Quantitative fluorescence resonance energy transfer measurements using fluorescence microscopy." Biophys J. 1998 May; 74:2702-13.

[1] = comparative examples (derivatives of arachidonic acid) at 10^-5 M, mean results, remaining enzyme activity, 100% = wells without sample or inhibitor
[2] = fatty acids of formula (I) at 10^-5 M, mean results, remaining enzyme activity, 100% = wells without sample or inhibitor

T1 sequence (P56817 46-457 limits assumed): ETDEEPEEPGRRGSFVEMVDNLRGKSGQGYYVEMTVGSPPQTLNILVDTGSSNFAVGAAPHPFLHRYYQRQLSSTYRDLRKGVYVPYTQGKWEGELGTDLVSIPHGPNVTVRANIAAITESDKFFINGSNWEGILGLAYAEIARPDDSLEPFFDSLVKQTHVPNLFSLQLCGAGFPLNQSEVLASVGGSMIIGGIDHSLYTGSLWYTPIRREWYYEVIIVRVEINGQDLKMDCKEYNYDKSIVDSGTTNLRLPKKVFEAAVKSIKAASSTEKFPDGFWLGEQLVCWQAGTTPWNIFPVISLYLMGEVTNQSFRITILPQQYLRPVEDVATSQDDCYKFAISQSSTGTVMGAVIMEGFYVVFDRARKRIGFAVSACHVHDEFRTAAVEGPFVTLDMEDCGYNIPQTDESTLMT

activity at 10 µM [1] [%] | Compound | activity at 10 µM [%] | other results
100 | CCCCCC=CCC=CCC=CCC=CCCCCOC(C)=O [Arachidonyl Acetate, Acetic acid icosa-5,8,11,14-tetraenyl ester] |  | 
100 | CCCCCC=CCC=CCC=CCC=CCCCCO [Arachidonyl alcohol, Icosa-5,8,11,14-tetraen-1-ol] |  | 
100 | CCCCCC=CCC=CCC=CCC=CCCCC(=O)OCC [Ethyl arachidonate, 5,8,11,14-Eicosatetraenoic acid ethyl ester] |  | 

Further lines, the compound ahead of its results:

Compound | activity at 10 µM [1] [%] | activity at 10 µM [%] | other results
CCCCCC=CCC=CCC=CCC=CCCCC(=O)NCCO [Anandamide, Icosa-5,8,11,14-tetraenoic acid (2-hydroxy-ethyl)-amide] |  | 100 | 
CCCCC/C=C\C/C=C\C/C=C\C/C=C\CCCC(=O)O [Arachidonic acid, cis,cis,cis,cis-5,8,11,14-Eicosatetraenoic acid] |  | 48.7 | 
CC/C=C\C/C=C\C/C=C\C/C=C\C/C=C\C/C=C\CCC(=O)O [Docosahexaenoic acid (DHA), cis-4,7,10,13,16,19-Docosahexaenoic Acid] |  |  | activity at 10 µM [2]: 82%
CCCCC/C=C\C/C=C\CCCCCCCC(=O)O [Linoleic acid, cis-9,cis-12-Octadecadienoic acid] |  |  | activity at 10 µM [2]: 55%
CC/C=C\C/C=C\C/C=C\CCCCCCCC(=O)O [Linolenic acid, cis,cis,cis-9,12,15-Octadecatrienoic acid] |  | 55.5 | 
Cyclopropanecarboxylic acid icosa-5,8,11,14-tetraenylam ide [Arachidonylcyclopropylamide (ACPA)] |  |  | % BACE Activity (10^-5 M) (comparative examples (derivatives of arachidonic acid) at 10^-5 M, mean results, remaining enzyme activity, 100% = wells without sample or inhibitor, 10 µM): 100%
